# Measured values published in US9555038B2, “Heterocycle-substituted tetracyclic compounds and methods of use thereof for the treatment of viral diseases” (Merck Sharp & Dohme Corp., priority 2013, dated 2017).
# Read-outs that look alike come from different tables or passages of the source.
# Tests used:
# [1] = tested on: HCV replicon 1A; assay: Cell-based HCV Replicon Assay A, replicon 1A
# Method in brief: (§1)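 Replicon cells were seeded at 2000 cells/well with test compound in 10 serial dilutions, starting at 333.3 nM to 1.667 nM, in 0.5% DMSO and 5% FBS. On day 3, cells were washed and lysed, and replicon RNA was quantified by multiplex TaqMan RT-PCR normalised to cyclophilin.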
# [2] = tested on: HCV replicon 1AY93H; assay: Cell-based HCV Replicon Assay A, replicon 1AY93H
# Method in brief: as §1
# [3] = tested on: HCV replicon 1B; assay: Cell-based HCV Replicon Assay B, replicon 1B
# Method in brief: (§2)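 Replicon cells seeded in 5% FBS; compounds added 24 h later, then 3 days' incubation. Replicon RNA quantified by real-time RT-PCR with genotype-specific primers/probes (NS5B amplicon for 1b). EC50 = concentration raising CT by 1 over projected baseline.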
# [4] = tested on: HCV replicon 2B; assay: Cell-based HCV Replicon Assay A, replicon 2B
# Method in brief: as §1
# [5] = tested on: HCV replicon 1AQ30D; assay: Cell-based HCV Replicon Assay B, replicon 1AQ30D
# Method in brief: as §2
# [6] = read-out: 1A Y93H IC50, replicon 1AY93H
# [7] = Hepatitis C virus, read-out: 1A Q30D IC50 (nM), replicon 1AQ30D
# [8] = read-out: 1A Q30D IC50, replicon 1AQ30D
# [9] = replicon 1AY93H, read-out: 1A Y93H IC50
# [10] = replicon 1AQ30D, read-out: 1A Q30D IC50
compound,measurement,setting,value
"COC(=O)NC(C(=O)N1[C@@H]2C[C@@H]2C[C@H]1c1ncc(-c2ccc3c(c2)cc2n3C(c3cnc(C4(C)CCCC4)s3)Oc3cc(-c4cnc([C@@H]5CCCN5C(=O)[C@@H](NC(=O)OC)C(C)C)[nH]4)cc(F)c3-2)[nH]1)C1C[C@@H](C)O[C@@H](C)C1 (single isomer, unassigned) [Compound 473]",IC50,[1]; Hepatitis C virus,0.0026 nM
same,IC50,[2]; [6],0.002 nM
same,IC50,[3]; Hepatitis C virus,0.0028 nM
same,IC50,"[4]; read-out: 2B IC50, replicon 2B",0.01 nM
same,IC50,[5]; [7],0.011 nM
"COC(=O)NC(C(=O)N1[C@@H]2C[C@@H]2C[C@H]1c1ncc(-c2ccc3c(c2)cc2n3C(c3cnc(C4(C)CCCC4)s3)Oc3cc(-c4cnc([C@@H]5CCCN5C(=O)[C@@H](NC(=O)OC)C(C)C)[nH]4)cc(F)c3-2)[nH]1)C1CCOC(C)(C)C1 (single isomer, unassigned) [Compound 475]",IC50,[1],0.0024 nM
same,IC50,[2]; [6],0.001 nM
same,IC50,[3]; Hepatitis C virus,0.0039 nM
same,IC50,"[4]; read-out: 2B IC50, replicon 2B",0.008 nM
same,IC50,[5]; [7],0.016 nM
"COC(=O)NC(C(=O)N1[C@@H]2C[C@@H]2C[C@H]1c1ncc(-c2ccc3c(c2)cc2n3C(c3cnc(C4(C)CCCC4)s3)Oc3cc(-c4cnc([C@@H]5CCCN5C(=O)[C@@H](NC(=O)OC)C(C)C)[nH]4)cc(F)c3-2)[nH]1)C1CCOC(C)(C)C1 (single isomer, unassigned) [Compound 477]",IC50,[1],0.0032 nM
same,IC50,[2]; [6],0.003 nM
same,IC50,[3],0.0037 nM
same,IC50,"[4]; read-out: 2B IC50, replicon 2B",0.008 nM
same,IC50,[5]; [8],0.009 nM
"CCCOCc1ncc(C2Oc3cc(-c4cnc([C@@H]5CCCN5C(=O)[C@@H](NC(=O)OC)C(C)C)[nH]4)cc(F)c3-c3cc4cc(-c5cnc([C@@H]6CCCN6C(=O)[C@@H](NC(=O)OC)C(C)C)[nH]5)ccc4n32)s1 (single isomer, unassigned) [Compound 492]",IC50,[1],0.0028 nM
same,IC50,[2]; [6],0.03 nM
same,IC50,[3],0.0029 nM
same,IC50,"[4]; read-out: 2B IC50, replicon 2B",0.146 nM
same,IC50,[5]; [8],0.535 nM
"CCCOCc1ncc(C2Oc3cc(-c4cnc([C@@H]5CCCN5C(=O)[C@@H](NC(=O)OC)C(C)C)[nH]4)cc(F)c3-c3cc4cc(-c5cnc([C@@H]6CCCN6C(=O)[C@@H](NC(=O)OC)C(C)C)[nH]5)ccc4n32)s1 (single isomer, unassigned) [Compound 499]",IC50,[1],0.0069 nM
same,IC50,[2]; [6],0.223 nM
same,IC50,[3],0.0088 nM
same,IC50,"[4]; read-out: 2B IC50, replicon 2B",0.622 nM
same,IC50,[5]; [8],1.09 nM
"CCCOCc1ncc(C2Oc3cc(-c4cnc([C@@H]5CCCN5C(=O)[C@@H](NC(=O)OC)C(C)C)[nH]4)cc(F)c3-c3cc4cc(-c5cnc([C@@H]6CCCN6C(=O)[C@@H](NC(=O)OC)C(C)C)[nH]5)ccc4n32)s1 (single isomer, unassigned) [Compound 500]",IC50,[1],0.0225 nM
same,IC50,[2]; [6],7.79 nM
same,IC50,[3],0.0184 nM
same,IC50,"[4]; read-out: 2B IC50, replicon 2B",1.67 nM
same,IC50,[5]; [8],16.7 nM
"COC(=O)N[C@H](C(=O)N1CCC[C@H]1c1ncc(-c2cc(F)c3c(c2)OC(c2cnc(C4(C)CC4)s2)n2c-3cc3cc(-c4cnc([C@@H]5CCCN5C(=O)[C@@H](NC(=O)OC)C(C)C)[nH]4)ccc32)[nH]1)C(C)C (single isomer, unassigned) [Compound 511]",IC50,[1]; Hepatitis C virus,0.0097 nM
same,IC50,[2]; [6],0.049 nM
same,IC50,[3],0.0087 nM
same,IC50,"[4]; read-out: 2B IC50, replicon 2B",0.095 nM
same,IC50,[5]; [7],0.847 nM
"COC(=O)N[C@H](C(=O)N1CCC[C@H]1c1ncc(-c2cc(F)c3c(c2)OC(c2cnc(CC(C)C)s2)n2c-3cc3cc(-c4cnc([C@@H]5CCCN5C(=O)[C@@H](NC(=O)OC)C(C)C)[nH]4)ccc32)[nH]1)C(C)C (single isomer, unassigned) [Compound 514]",IC50,[1],0.0022 nM
same,IC50,[2]; [9],0.012 nM
same,IC50,[3],0.003 nM
same,IC50,"[4]; replicon 2B, read-out: 2B IC50",0.035 nM
same,IC50,[5]; [10],0.174 nM
"COC(=O)N[C@H](C(=O)N1CCC[C@H]1c1ncc(-c2cc(F)c3c(c2)OC(c2cnc(C4CC4)s2)n2c-3cc3cc(-c4cnc([C@@H]5CC6(C)CC6N5C(=O)[C@@H](NC(=O)OC)C(C)C)[nH]4)ccc32)[nH]1)C(C)C (single isomer, unassigned) [Compound 518]",IC50,[1],0.0025 nM
same,IC50,[2]; [9],0.016 nM
same,IC50,[3],0.0024 nM
same,IC50,"[4]; replicon 2B, read-out: 2B IC50",0.015 nM
same,IC50,[5]; [10],0.099 nM
"COC(=O)N[C@H](C(=O)N1CCC[C@H]1c1ncc(-c2cc(F)c3c(c2)OC(c2cnc(C4CC4)s2)n2c-3cc3cc(-c4cnc([C@@H]5CC6(C)CC6N5C(=O)[C@@H](NC(=O)OC)C(C)C)[nH]4)ccc32)[nH]1)C(C)C (single isomer, unassigned) [Compound 519]",IC50,[1],0.0031 nM
same,IC50,[2]; [9],0.669 nM
same,IC50,[3],0.0021 nM
same,IC50,"[4]; replicon 2B, read-out: 2B IC50",0.598 nM
same,IC50,[5]; [10],0.951 nM
